Results: PubChem BioAssay AID1159565 (GlaxoSmithKline (GSK), 2015)
Calls of active or inactive are those of the source. The rule behind the calls is not given here.

Test system: T. cruzi-infected H9C2 cardiomyocytes, high-content imaging
Assay: intracellular T. cruzi amastigote inhibition, imaging, H9C2 host cardiomyocytes, host toxicity (AID 1159565);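 note: infected cells incubated 72 h after plating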
[1] = measured here: H9C2 host cell toxicity
[2] = measured here: amastigotes per cell

In the case of `COc1ccc(-c2nc3ncccc3o2)cc1NC(=O)c1cccs1`, the IC50 is reported as 2.5 µM, the IC50 [1] is reported as > 50 µM and the IC50 [2] is reported as 2 µM.
For `CN(Cc1ccccc1)Cc1nnnn1C1CCN(Cc2ccc(-n3ccnc3)cc2)CC1`, the IC50 was 0.32 µM, the IC50 [1] was > 50 µM and the IC50 [2] was 0.25 µM.
For `CCc1ccc2nc(NC(=O)c3cc(N4CCOCC4)ccn3)sc2c1`, the IC50 was 0.79 µM, the IC50 [1] was 40 µM and the IC50 [2] was 0.5 µM.
In the case of `O=[N+]([O-])c1ccc(-c2nnn(-c3ccc(Cl)cc3)n2)o1`, the IC50 is reported as 0.79 µM, the IC50 [1] is reported as 10 µM and the IC50 [2] is reported as 0.079 µM.
`CN(C)Cc1ccc(-c2ccc(S(=O)(=O)NCC3CCCO3)c(F)c2)cc1` (stereo not drawn) was tested, and the IC50 was 5 µM, the IC50 [1] was 63 µM and the IC50 [2] was 2 µM.
`COCCn1cnc2cc(NC(=O)C3CCCCC3)cc(C(=O)N3CCc4sccc4C3)c21` was tested, and the IC50 was 32 µM, the IC50 [1] was > 50 µM and the IC50 [2] was 20 µM.
For `Cn1nc(-c2ccc(NC(=O)Cc3ccccc3Cl)cc2)c2c(N)ncnc21`, the IC50 was 1.3 µM, the IC50 [1] was 7.9 µM and the IC50 [2] was 1 µM.
In the case of `COc1ccc2ncc(=O)n(CCN3CC[C@H](NCc4ncc(Cl)c5[nH]ncc45)[C@H](O)C3)c2n1`, the IC50 is reported as 3.2 µM, the IC50 [1] is reported as > 50 µM and the IC50 [2] is reported as 1.6 µM.
`N#Cc1ccc(C(=O)Nc2cccc(-c3cccc(CN4CCC(O)CC4)c3)c2)cc1` was tested, and the IC50 was 7.9 µM, the IC50 [1] was 32 µM and the IC50 [2] was 7.9 µM.
`CCCn1c(NC(=O)CCn2cc(Br)cn2)nc2ccccc21` gave an IC50 of 6.3 µM, an IC50 [1] of 25 µM and an IC50 [2] of 2.5 µM.
In the case of `CC(C)c1nn(-c2nc(N)nc(-c3ccccn3)n2)c(N)c1C1CCCCC1`, the IC50 is reported as 1.3 µM, the IC50 [1] is reported as 3.2 µM and the IC50 [2] is reported as 1.3 µM.
With `Cc1cc2cncn2c(C2CCCCN2C(=O)c2cccs2)n1` (stereo not drawn) the IC50 was 0.063 µM, the IC50 [1] was > 50 µM and the IC50 [2] was 0.063 µM.
In the case of `COc1cccc(-c2cc(C(F)(F)F)nc(-n3ccc([N+](=O)[O-])n3)n2)c1`, the IC50 is reported as 0.4 µM, the IC50 [1] is reported as > 50 µM and the IC50 [2] is reported as 0.2 µM.
`Cc1cccc(Nc2nc(-c3ccccn3)cs2)n1` was tested, and the IC50 was 1 µM, the IC50 [1] was 0.63 µM and the IC50 [2] was 0.79 µM.
`CN(Cc1ccc(C(N)=O)cc1)C(c1ccc(F)cc1)c1cccnc1` (stereo not drawn) was tested, and the IC50 was 0.25 µM, the IC50 [1] was > 50 µM and the IC50 [2] was 0.2 µM.
For `CCC(=O)Nc1ccc(-c2nc3ccc(Cl)cc3[nH]2)cc1`, the IC50 was 1.6 µM, the IC50 [1] was > 50 µM and the IC50 [2] was 0.5 µM.
`CN1CCC(N(C)c2nccc(N3CCN(C(=O)c4cccc(-c5cccnc5)c4)CC3)n2)CC1` showed an IC50 of 1.3 µM, an IC50 [1] of 7.9 µM and an IC50 [2] of 1 µM.
With `O=C(O)[C@H]1C[C@@H]1c1ccc(-c2ccc(CN(CCc3ccccn3)C(=O)C3CCC3)cc2)cc1` the IC50 was 32 µM, the IC50 [1] was > 50 µM and the IC50 [2] was 32 µM.
`CC1=C(C(=O)Nc2ccc(Cl)cc2)C(c2ccncc2)n2ncc(C(=O)Nc3ccccc3)c2N1` (stereo not drawn) was tested, and the IC50 was 0.02 µM, the IC50 [1] was > 50 µM and the IC50 [2] was 0.02 µM.
In the case of `CC1=NN(C(=O)CCn2cnc([N+](=O)[O-])n2)C(O)(C(F)(F)F)C1` (stereo not drawn), the IC50 is reported as 6.3 µM, the IC50 [1] is reported as > 50 µM and the IC50 [2] is reported as 1.3 µM.
For `O=C(NCc1nnc2n1CCCCC2)c1ccc(-c2ccc(F)cc2)o1`, the IC50 was 1.6 µM, the IC50 [1] was > 50 µM and the IC50 [2] was 1 µM.
`CCOc1ccc(CC(=O)N2c3ccccc3CC2C(=O)NC)cc1` (stereo not drawn) was tested, and the IC50 was > 50 µM (inactive), the IC50 [1] was > 50 µM and the IC50 [2] was > 50 µM.
Compound `Cc1cccc(N2CCCN(Cc3c[nH]c4ccccc34)CC2)n1` has an IC50 of 0.4 µM, an IC50 [1] of 2.5 µM and an IC50 [2] of 0.32 µM.
For `O=S(=O)(NCC(c1cccnc1)N1CCN(c2ccc(F)cc2)CC1)c1cccs1` (stereo not drawn), the IC50 was 0.13 µM, the IC50 [1] was > 50 µM and the IC50 [2] was 0.13 µM.
`Cc1ccc2c(c1)SC(C(=O)Nc1n[nH]c(-c3ccccn3)n1)C2` (stereo not drawn) was tested, and the IC50 was 7.9 µM, the IC50 [1] was > 50 µM and the IC50 [2] was 6.3 µM.
`Cc1cc(Br)sc1CNCCCNc1cc(=O)c2ccccc2[nH]1` showed an IC50 of 0.79 µM, an IC50 [1] of 25 µM and an IC50 [2] of 0.5 µM.
In the case of `NC(=O)c1ccsc1NC(=O)c1ccc([N+](=O)[O-])s1`, the IC50 is reported as 0.13 µM, the IC50 [1] is reported as > 50 µM and the IC50 [2] is reported as 0.1 µM.
`COc1ccc(CN2C(=O)C(O)(CC(=O)c3ccncc3)c3cc(Br)ccc32)cc1OC` (stereo not drawn) showed an IC50 of 25 µM, an IC50 [1] of 2 µM and an IC50 [2] of 13 µM.
In the case of `CCOc1ccc(N(C)S(=O)(=O)c2ccc3[nH]cc(C(=O)NC4CCCC4)c(=O)c3c2)cc1`, the IC50 is reported as > 50 µM (inactive), the IC50 [1] is reported as > 50 µM and the IC50 [2] is reported as 6.3 µM.
`O=[N+]([O-])c1cccc(Nc2cncc(-c3ccccc3CO)c2)c1` was tested, and the IC50 was 0.4 µM, the IC50 [1] was > 50 µM and the IC50 [2] was 0.25 µM.
In the case of `N#Cc1cccc(Cc2cc(Nc3cc(C4CC4)[nH]n3)nc(N3CC[C@H]3C(N)=O)n2)c1`, the IC50 is reported as 4 µM, the IC50 [1] is reported as 0.004 µM and the IC50 [2] is reported as 1 µM.
For `O=C(COc1ccccc1)Nc1ccccc1C(=O)Nc1nccs1`, the IC50 was > 50 µM (inactive), the IC50 [1] was > 50 µM and the IC50 [2] was > 50 µM.
Work on `CCOc1ccc2nc(NC(=O)c3ccc([N+](=O)[O-])s3)sc2c1` yielded an IC50 of 1.3 µM, an IC50 [1] of 10 µM and an IC50 [2] of 1 µM.
`O=c1[nH]c(NCCCNCc2cc(Br)cc(Br)c2)nc2ccsc12` was tested, and the IC50 was 0.63 µM, the IC50 [1] was 25 µM and the IC50 [2] was 0.4 µM.
Work on `O=S(=O)(c1cccc(CSc2nnc(-c3ccc4c(c3)OCO4)o2)c1)N1CCOCC1` yielded an IC50 of 0.1 µM, an IC50 [1] of 25 µM and an IC50 [2] of 0.04 µM.
For `CC(C)(C)C(Cn1ccnc1)NC(=O)c1ccc2nc(C3CC3)oc2c1` (stereo not drawn), the IC50 was 0.1 µM, the IC50 [1] was > 50 µM and the IC50 [2] was 0.079 µM.
With `Cc1nn(C)c(Cl)c1CN(Cc1cccnc1)Cc1ccsc1` the IC50 was 0.32 µM, the IC50 [1] was > 50 µM and the IC50 [2] was 0.32 µM.
With `N#Cc1cccc(CN2CCC(N(Cc3cccnc3)C(=O)c3cc(F)c(F)cc3F)CC2)c1` the IC50 was 0.4 µM, the IC50 [1] was > 50 µM and the IC50 [2] was 0.32 µM.
`OC[C@@H](Nc1nccc(-c2c(-c3ccc(F)cc3)ncn2C2CCNCC2)n1)c1ccccc1` showed an IC50 of 13 µM, an IC50 [1] of 2 µM and an IC50 [2] of 13 µM.
For `COc1ccc(Nc2nc(NC3CCC(O)CC3)ncc2Br)c(C(N)=O)c1` (stereo not drawn), the IC50 was 3.2 µM, the IC50 [1] was 0.79 µM and the IC50 [2] was 2 µM.
`O=C(Nc1ccccc1C(=O)Nc1ccccn1)c1ccco1` was tested, and the IC50 was > 50 µM (inactive), the IC50 [1] was > 50 µM and the IC50 [2] was > 50 µM.
For `CCN(CC)c1ccc(S(=O)(=O)N(CC)CC)c2nonc12`, the IC50 was 50 µM, the IC50 [1] was > 50 µM and the IC50 [2] was 20 µM.
Work on `C[C@@H](Oc1cc(-n2cnc3ccc(O[C@H]4CCNC4)cc32)sc1C(N)=O)c1ccccc1Cl` yielded an IC50 of 13 µM, an IC50 [1] of 0.63 µM and an IC50 [2] of 6.3 µM.
With `CNC(=O)C1Cc2ccccc2N1C(=O)COc1cccc(OC)c1` (stereo not drawn) the IC50 was > 50 µM (inactive), the IC50 [1] was > 50 µM and the IC50 [2] was > 50 µM.
`O=C(NC(CO)c1ccc(F)cc1)c1ccc(-c2c[nH]c3ncccc23)s1` (stereo not drawn) gave an IC50 of 16 µM, an IC50 [1] of 4 µM and an IC50 [2] of 13 µM.
For `O=C(Cn1cnc2c(-c3ccccc3)csc2c1=O)N1CCCCC1`, the IC50 was 4 µM, the IC50 [1] was > 50 µM and the IC50 [2] was 3.2 µM.
In the case of `O=S(=O)(c1ccccc1C(F)(F)F)N1CCN(Cc2ccc(-n3ccnc3)cc2)CC1`, the IC50 is reported as 0.25 µM, the IC50 [1] is reported as > 50 µM and the IC50 [2] is reported as 0.2 µM.
`O=C1CN(C2CCCc3c(OCc4ccncc4)cccc32)C(=O)N1C1CCCCC1` (stereo not drawn) was tested, and the IC50 was 0.016 µM, the IC50 [1] was > 50 µM and the IC50 [2] was 0.013 µM.
With `CC(c1ccccn1)N(C)Cc1nc2ccccc2n1C(C)C` (stereo not drawn) the IC50 was 6.3 µM, the IC50 [1] was > 50 µM and the IC50 [2] was 2 µM.
`O=C(CSc1ccc(-c2ccccn2)nn1)Nc1ccc(Cl)cc1` was tested, and the IC50 was 2.5 µM, the IC50 [1] was > 50 µM and the IC50 [2] was 2 µM.
For `COc1ccc(C2CC(c3ccc(NS(C)(=O)=O)cc3)=NN2C(=O)c2cccs2)cc1OC` (stereo not drawn), the IC50 was 32 µM, the IC50 [1] was > 50 µM and the IC50 [2] was 16 µM.
